Source: patent publication US4738965A, “2-oxo-4-(2'-difl uoromethylthiophenyl)-5-methoxycarbonyl-6-methyl-1,2,3,4-tetrahydropyrimi dine” (Institut Organischskogo Sinteza Akademii Nauk SSR, priority 1987, dated 1988)
Read-outs that look alike come from different tables or passages of the source.

How the values were obtained:
[1] = large doses, in words; cited from earlier work
[2] = system: coronary dilating activity; details: clinical practice, in words; cited from earlier work
[3] = system: Coronary Blood Flow (descending branch of the left coronary artery); experiment: Coronary dilating activity: coronary blood flow in narcotized dogs with open thoracic cavity; format: in vivo; details: for ED (50% increase): Canis lupus familiaris, read-out: Dose increasing coronary blood flow by 50%
Experimental: The experiments have been conducted on narcotized dogs with the open thoracic cavity. The blood flow was registered in the descending branch of the left coronary artery.
The blood flow was determined before and after the injection of the proposed compounds. The proposed compound was introduced in a single dose, intravenously, followed by calculating the increase in the coronary blood flow in percent.

[4] = system: Arterial Pressure; experiment: Hypotensive activity in spontaneously-hypertensive rats; format: in vivo, spontaneously-hypertensive rats (SHR) of Okamoto-Aoki line; details: SHR, single 10 mg/kg dose into the stomach; for Hypotensive activity: Table 2
Experimental: The experiments were conducted on spontaneously-hypertensive rats (SHR) of Okamoto-Aoki line.

[5] = Acute toxicity in mice; details: mouse, in vivo, ip
[6] = in vivo; details: mouse, ip
[7] = system: systemic arterial pressure and cardiac output; experiment: Systemic arterial pressure and cardiac output in narcotized dogs; format: in vivo; details: 0.01-0.1 mg/kg, intravenous
[8] = Solubility; format: physicochemical
[9] = Chemical stability; format: physicochemical
[10] = system: mongrel white mice; experiment: Acute toxicity in mice; details: ratio versus nifedipin and papaverine
[11] = 0.1 mg/kg, single dose, intravenous, narcotized dogs
[12] = 0.5 mg/kg, single dose, intravenous, narcotized dogs
[13] = 0.01 mg/kg, single dose, intravenous, narcotized dogs

COc1ccc(Cc2nccc3cc(OC)c(OC)cc23)cc1OC [Papaverine, reference compound]
Toxicity [1]: rather high | Coronary dilating activity [2]: low coronary dilating activity | Duration of effect [3, 11]: 5 min | Increase of coronary blood flow [3, 11]: 20% | Duration of effect [3, 12]: 7 min | Increase of coronary blood flow [3, 12]: 30% | ED (50% increase) ([3]; iv): 0.9 mg/kg | Duration of hypotensive effect [4]: 3 h | Effect on arterial pressure (in words) [4]: insignificant effect on arterial pressure | Reduction of (systolic) arterial pressure [4]: 5% | Hypotensive activity [4]: 5 | LD50 at 336 h [5]: 91 mg/kg

COC(=O)C1=C(C)NC(=O)NC1c1ccccc1SC(F)F (stereo not shown) [Proposed compound, 2-oxo-4-(2'-difluoromethylthiophenyl)-5-methoxycarbonyl-6-methyl-1,2,3,4-tetrahydropyrimidine]
Increase of coronary blood flow ([3]; 0.001 mg/kg, single dose, intravenous, narcotized dogs): 19% | Duration of effect [3, 13]: 35 min | Increase of coronary blood flow [3, 13]: 79% | Duration of effect [3, 11]: 60 min | Increase of coronary blood flow [3, 11]: 107% | ED (50% increase) ([3]; single dose, intravenous, narcotized dogs): 0.006 mg/kg | Duration of effect compared with nifedipin ([3]; ratio versus nifedipin): 1.7 times | Strong and prolonged vasodilating effect with relation to coronary vessels, compared with nifedipin ([3]; ratio versus nifedipin (summary)): 1.7 times | Coronary dilating activity compared with papaverine, by doses ([3]; ratio versus papaverine): 150 times | Duration of effect compared with papaverine ([3]; ratio versus papaverine): over 10 times | Strong and prolonged vasodilating effect with relation to coronary vessels, compared with papaverine ([3]; ratio versus papaverine (summary)): about 10 times | Coronary dilating effect compared with nifedipin ([3]; versus nifedipin, in words): approximately equal in activity to nifedipin | LD50 at 336 h [6]: > 2000 mg/kg | Duration of hypotensive effect [4]: 6 h | Effect on arterial pressure (in words) [4]: no substantial effect on arterial pressure | Reduction of (systolic) arterial pressure [4]: 8% | Hypotensive activity [4]: 8 | Change of systemic arterial pressure and cardiac output [7]: did not change the systemic arterial pressure and the cardiac output | Solubility in organic solvents ([8]; ethyl alcohol, acetone, chloroform and other organic solvents): comparatively easily-soluble in ethyl alcohol, acetone, chloroform and other organic solvents | Solubility in water ([8]; water): insoluble in water | Chemical stability [9]: chemically stable | Toxicity, times lower than that of nifedipin and papaverine [10]: 10-20 times
